The text below walks through data of patent publication US7049331B2, “1,2,4-thiadiazole derivatives as melanocortin receptor modulators” (Ortho-McNeil Pharmaceutical, Inc., priority 2001, dated 2006).

Read-outs that look alike come from different tables or passages of the source.

Experiment [1] deals with T1, melanocortin MC-4 receptor (Homo sapiens, UniProt P32245).
T1 construct: purchased Receptor Biology Inc
Nature of the experiment: Melanocortin MC-4 Receptor Binding Assay (SPA). The procedure:
Melanocortin MC-4 Receptor Binding Assay Melanocortin [MC-4]-membrane [purchased from Receptor Biology Inc] was coupled to wheat germ agglutinin coated polyvinyl toluene-Scintillation Proximity Assay beads [purchased from Amersham Pharmacia Inc.] for 30 min at 25° C. Into each well of a 96-well Opti plate [purchased from Packard, Calif.], 2.5 μg of membrane and 0.25 mg of beads were mixed in a volume of 100 μL media. […] Test compounds (1.5 μL) at 1 mM in 30% DMSO-50 mM HEPES, pH 7.4 buffer was added to separate wells on the plate. Radioactive ligand ^125I-NDP-melanocyte stimulating hormone [NEN, 2000Ci/mmol] was added to each well (48.5 μL per well, 40 pM final concentration). The plate was then sealed and let stand for 16 hr at 25° C. NDP-Melanocyte stimulating hormone peptide and α-melanocyte stimulating hormone peptide [purchased from Palomar Research Inc, 1 μM] were used as reference inhibitor compounds to define non-specific binding (N). Total binding (T) was defined using 30% DMSO-50 mM HEPES, pH 7.4 buffer. Bound radioactivity for each well (Y), measured at counts per minute (cpm) was measured in a TopCount [Packard, Calif.]. Percent inhibition was calculated as: […] The procedures described above for the melanocortin MC-4 receptor were repeated for the melanocortin MC-3 receptor. Following the procedures described, representative compounds of the present invention were tested for binding in the MC-4 and/or MC-3 assay, as listed in Table 4.

Experiment [2] addresses T1, melanocortin MC-4 receptor. The experiment can be described thus: MC-4 receptor binding (Filtration). Conditions: Filtration; for IC50: read-out: IC50 MC-4 (μM) (Filtration). The procedure: The procedures described above for the melanocortin MC-4 receptor were repeated for the melanocortin MC-3 receptor. Following the procedures described, representative compounds of the present invention were tested for binding in the MC-4 and/or MC-3 assay, as listed in Table 4.

The next experiment deals with Cortical Cells. The experiment can be described thus: Neurite Cell Outgrowth Assay, cortical cells. The experiment is classed as cell-based. Conditions: Rattus norvegicus; 50 nM; percent change over the vehicle response; NA = no change/not active. The source says:
(§1) Dissociated hippocampal and cortical cell cultures were established from embryonic day 18 rat fetuses as described by Mattson, M. P., Barger, S. W., Begley, J, and Mark, R. J., Methods Cell Biol., 1994, 46:[…]. Briefly, fetuses were removed via cesarean section from pregnant moms (Sprague-Dawley) and anesthetized with halothane according to the AVMA Panel on Euthanasia. Pups were decapitated and the brains were removed and placed in HEPES-buffered Hank's Balanced Salt solution (HBSS; Gibco). The hippocampi and cortices were dissected out and pooled according to tissue-type. Tissue was trypsinized for 15 min (1 mg/ml trypsin-HBSS; Worthington), rinsed with fresh HBSS, incubated in trypsin inhibitor (1 mg/ml; Sigma) for 5 min, rinsed again with fresh HBSS and then triturated in 1 ml fresh HBSS with a fire-polished glass pipette. Dissociated cells were seeded at 30,000 cells/well onto poly-D-lysine coated 96-well plates (Collaborative BioScience). Each well contained 100 μl of Eagle's Minimal Essential Media (MEM; Gibco) supplemented with 26 mM NaHCO3 (Sigma), 56 mM glucose (Sigma), 15 mM KCl (Sigma), 1 mM sodium pyruvate (Sigma), 1.1 mM L-glutamine (Sigma), 10% (v/v) heat-inactivated fetal bovine serum (Hyclone), and 0.001% gentamicin sulfate (Sigma) (pH 7.4). Cells were allowed to attach for 24 h in a humidified 37° C. 5% CO2 incubator before experimental treatment. The culture media was aspirated and exchanged with fresh media every 3 days.
(§2) Twenty-four hours after plating, cultures were treated with vehicle (PBS+0.1% BSA), alpha-melanocyte stimulating hormone (α-MSH) or test compound (diluted in DPBS). Each treatment condition was run in quadruplicate. On the third day in culture, the media was aspirated off and replaced with fresh media and test compound. At one week in culture, the cells were fixed with 10% phosphate-buffered formalin for 15 min, then rinsed with DPBS (Sigma) and placed in blocking serum for 30 min (horse serum; 1:50 dilution in DPBS; Vector Labs). The cultures were rinsed again with DPBS and then incubated in primary antibody for 2 hr (microtubule-associated protein-2 (MAP-2) is a selective marker for dendritic processes; anti-mouse monoclonal (Chemicon); 1:1000 dilution of MAP-2 in antibody diluent (Zymed)). Negative control wells were incubated in antibody diluent alone. Background signal was determined by blank wells (cell-free) incubated with or without antibody. Cultures were rinsed again with DPBS and then placed in fluorescein for 1 hr (FITC; anti-mouse IgG; rat adsorbed; 1:50 dilution in DPBS; Vector Labs). Cultures were rinsed a final time with DPBS and the plates were then read on a Cytofluor 4000 fluorescence plate reader. Neurite outgrowth was expressed as percent change from control (vehicle).
(§3) The data are expressed as percent change over the vehicle response. All compounds were screened at 50 nM. The abbreviation NA indicates no change/not active; the abbreviation ND indicates a compound not tested/response not determined.

Another experiment deals with Hippocampal Cells. Nature of the experiment: Neurite Cell Outgrowth Assay, hippocampal cells. Type of experiment: cell-based. Conditions: Rattus norvegicus; 50 nM; percent change over the vehicle response; NA = no change/not active.
Excerpt: as §1, §2, §3

The subject of the next experiment is Food-Deprived Rats. Nature of the experiment: Rodent Feeding: Food Intake in Food-Deprived Rats (MC-4). Type of experiment: in vivo, rat. The settings on record: for change in vivo at 10 mg/kg / change in vivo at 30 mg/kg: Rattus norvegicus; for change in vivo at 30 mg/kg: po. From the text:
Rodent Feeding: Food Intake in Food-Deprived Rats (MC-4)
Male Long-Evans rats (180–200 grams) were housed individually and maintained on a once-a-day feeding schedule (i.e.10 a.m. until 4 p.m.) for five days following quarantine to allow the animals to acclimate to feeding on powdered chow (#5002 PMI Certified Rodent Meal) during the allotted time. The chow was made available in an open jar, anchored in the cage by a wire, with a metal follower covering the food to minimize spillage. Water was available ad-libitum.
Animals were fasted for 18 hours prior to testing. At the end of the fasting period, animals were administered either a test compound or vehicle. Vehicle and test compound were administered either orally (5 mL/kg) 60 minutes prior to the experiment, subcutaneously (1 mL/kg) 30 minutes prior to the experiment, or intraperitoneally (1 mL/kg) 30 minutes prior to the experiment. Test compounds were administered orally as a suspension in aqueous 0.5% methylcellulose-0.4% Tween 80, or intraperitoneally as a solution or suspension in PEG 200; compound concentrations typically ranged from 1 mg/kg to 100 mg/kg, preferably from 10–30 mg/kg. Food intake was measured at 2, 4, and 6 hours after administration by weighing the special jar containing the food before the experiment and at the specified times. Upon completion of the experiment, all animals were given a one-week washout period before re-testing.
Following the procedure described above, select compounds of the present invention were tested to measure the effect on food intake in fasted rats, as listed in Table 5 and 6.

T1 sequence (P32245 whole entry): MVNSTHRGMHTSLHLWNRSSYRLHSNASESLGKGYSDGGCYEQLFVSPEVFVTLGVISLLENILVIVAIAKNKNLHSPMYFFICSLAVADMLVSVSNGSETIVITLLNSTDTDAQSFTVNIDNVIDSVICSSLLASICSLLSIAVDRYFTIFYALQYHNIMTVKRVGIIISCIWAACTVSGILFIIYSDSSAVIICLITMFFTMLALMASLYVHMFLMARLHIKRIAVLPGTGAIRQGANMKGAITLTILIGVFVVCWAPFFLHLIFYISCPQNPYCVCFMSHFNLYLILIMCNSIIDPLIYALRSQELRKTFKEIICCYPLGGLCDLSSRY

Turning to `Cc1ccc(Nc2nc(-c3ccccc3)[n+](-c3ccc(C)cc3)s2)cc1` [Compound 4], in experiment [1], the IC50 stood at 297 nM. Moreover, in experiment [2], the “IC50 MC-4 (μM) (Filtration)” value is “inactive”. Besides, the activation at 0.05 µM with Cortical Cells came to 21%; in the experiment with Hippocampal Cells, 20%.
For `Cc1ccc(-[n+]2sc(Nc3ccccc3C)nc2-c2ccccc2)cc1` [Compound 5], the figures for the IC50 in experiment [1] and in experiment [2] were 207 nM and 1.3 µM, respectively. In addition, the activation at 0.05 µM with Cortical Cells turned out to be 9%; with Hippocampal Cells it was 28%.
Regarding `COc1ccc(Nc2nc(-c3ccccc3)[n+](-c3ccc(C)cc3)s2)cc1` [Compound 1], the IC50 in experiment [1] was 174 nM; in experiment [2], 1.1 µM. In the experiment on Hippocampal Cells, the activation at 0.05 µM is 6%. In addition, the change in vivo at 10 mg/kg was -11.6% with Food-Deprived Rats (ip, 2 h, ip, read-out: Change in Food Intake 0–2 hrs (%)) and -37% with Food-Deprived Rats (ip, 6 h, ip, read-out: Change in Food Intake 2–6 hrs (%)). The change in vivo at 30 mg/kg was -21.2% with Food-Deprived Rats (2 h, read-out: Change in Food Intake 0–2 hrs (%)) and -6.7% in the experiment on Food-Deprived Rats (6 h, read-out: Change in Food Intake 2–6 hrs (%)). Besides, the “Food Intake 2–6 hrs” value in the experiment with Food-Deprived Rats (fasted rats, 10μ, ip) worked out at 8.43 g. Further, the “Food Intake 0–2 hrs” value with Food-Deprived Rats (fasted rats, ip) is listed as 7.29 g.
Consider `Cc1ccc(Nc2nc(-c3ccccc3)[n+](-c3ccc(Cl)cc3)s2)cc1` [Compound 18], for which the IC50 amounted to 463 nM in experiment [1] and 6 µM in experiment [2]. The activation at 0.05 µM in the experiment on Cortical Cells and in the experiment with Hippocampal Cells was 17% throughout.
With `Cc1ccc(-[n+]2sc(Nc3ccccc3)nc2-c2ccccc2)cc1` [Compound 2], the IC50 in experiment [1] turned out to be 234 nM; in experiment [2] it was 1.5 µM. In addition, the activation at 0.05 µM in the experiment on Cortical Cells and in the experiment with Hippocampal Cells was 18% each time.
On to `COc1ccc(/N=c2\nc(-c3ccccc3)n(-c3ccc(C)cc3)s2)cc1` [Compound 83], for which the figures for the IC50 in experiment [1] and in experiment [2] were 833 nM and 1.9 µM, respectively. The figures for the activation at 0.05 µM with Cortical Cells and with Hippocampal Cells were 9% and 11%, respectively.
For `Clc1ccc(-[n+]2sc(Nc3ccccc3)nc2-c2ccccc2)cc1` [Compound 15], the IC50 came out at 482 nM in experiment [1] and 4.5 µM in experiment [2]. Besides, the activation at 0.05 µM was 31% with Cortical Cells and 18% in the experiment with Hippocampal Cells.
For `COc1ccccc1Nc1nc(-c2ccccc2)[n+](-c2ccc(C)cc2)s1` [Compound 3], the results for the IC50 in experiment [1] and in experiment [2] were 159 nM and 0.7 µM, respectively. Further, the activation at 0.05 µM amounted to 23% in the experiment with Cortical Cells and 17% in the experiment on Hippocampal Cells.
As to `COc1ccccc1Nc1nc(-c2ccccc2)[n+](-c2ccc(Cl)cc2)s1` [Compound 17], the IC50 amounted to 351 nM in experiment [1] and 7.7 µM in experiment [2]. In addition, the activation at 0.05 µM in the experiment with Cortical Cells was 17%; in the experiment with Hippocampal Cells it was 8%.
The matching figures for `Cc1ccccc1-[n+]1sc(Nc2ccccc2Cl)nc1-c1ccccc1` [Compound 14]: 234 nM, 5.6 µM, 19% and 30%.
The matching figures for `Cc1ccc(-n2s/c(=N/c3ccccc3)nc2-c2ccccc2)cc1` [Compound 82]: 826 nM, 1.5 µM, 15% and 14%.
The matching figures for `Cc1ccc(-[n+]2sc(Nc3ccc(Cl)cc3)nc2-c2ccccc2)cc1` [Compound 6]: 293 nM, 2.5 µM, 24% and 23%.
`Clc1ccc(-[n+]2sc(Nc3ccccc3Cl)nc2-c2ccccc2)cc1` [Compound 21]: the IC50 is 392 nM in experiment [1] and 7.8 µM in experiment [2]. For the same molecule, the activation at 0.05 µM was 2% with Cortical Cells and 27% in the experiment with Hippocampal Cells.
In the case of `Cc1ccccc1Nc1nc(-c2ccccc2)[n+](-c2ccccc2C)s1` [Compound 12], in experiment [1], the “IC50 MC-4 (nM) (SPA)” value is “insoluble”. The “IC50 MC-4 (μM) (Filtration)” value in experiment [2] is reported as “insoluble”. The activation at 0.05 µM in the experiment on Cortical Cells amounted to 20%; in the experiment on Hippocampal Cells, 28%.
As for `Cc1ccccc1-[n+]1sc(Nc2ccc(Cl)cc2)nc1-c1ccccc1` [Compound 13], the IC50 came out at 347 nM in experiment [1] and 3.4 µM in experiment [2]. In addition, the activation at 0.05 µM with Cortical Cells was found to be 32%; in the experiment on Hippocampal Cells, 29%.
For the molecule `COc1ccc(Nc2nc(-c3ccccc3)[n+](-c3ccc(Cl)cc3)s2)cc1` [Compound 16], the IC50 in experiment [1] came to 424 nM; in experiment [2] it was 4.3 µM. Besides, the figures for the activation at 0.05 µM in the experiment with Cortical Cells and in the experiment with Hippocampal Cells were 18% and 8%, respectively.
